The values that follow come from patent US11466016B2, “Pharmaceutical compounds” (priority 2018, dated 2022).

Counter-ions that a name gives are not always drawn.

In the first experiment the target is SHP2 (Homo sapiens (Human), UniProt Q06124). In words: SHP2 Biochemical Assay (DiFMUP conversion, pIRS1 activating peptide).
Sequence of SHP2 (Q06124 whole entry): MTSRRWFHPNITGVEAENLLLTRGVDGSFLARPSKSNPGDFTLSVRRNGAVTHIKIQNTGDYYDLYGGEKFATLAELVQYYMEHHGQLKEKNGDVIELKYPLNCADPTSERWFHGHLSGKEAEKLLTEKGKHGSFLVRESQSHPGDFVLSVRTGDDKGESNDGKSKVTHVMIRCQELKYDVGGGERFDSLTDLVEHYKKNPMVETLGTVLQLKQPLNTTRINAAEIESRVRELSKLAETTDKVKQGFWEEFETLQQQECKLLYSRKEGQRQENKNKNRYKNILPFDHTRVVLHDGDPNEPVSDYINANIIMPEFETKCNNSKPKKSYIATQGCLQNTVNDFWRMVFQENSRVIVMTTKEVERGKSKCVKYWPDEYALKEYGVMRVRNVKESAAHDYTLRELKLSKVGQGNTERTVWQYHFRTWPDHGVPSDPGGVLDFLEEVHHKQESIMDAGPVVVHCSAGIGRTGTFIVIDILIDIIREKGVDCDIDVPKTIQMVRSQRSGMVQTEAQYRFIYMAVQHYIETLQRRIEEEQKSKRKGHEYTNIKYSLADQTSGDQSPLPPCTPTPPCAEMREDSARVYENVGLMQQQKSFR
Settings: not given
By IC50 is commonly meant the concentration that inhibits the measured activity by half. `Cc1nc2ccc(-c3n[nH]c4nc(N5[C@H]6CC[C@@H]5[C@@H](F)[C@@H](N)C6)c(CO)nc34)c(Cl)c2s1` [Example 98, {6-[(1R,2S,3S,5S)-3-amino-2-fluoro-8-azabicyclo[3.2.1]octan-8-yl]-3-(7-chloro-2-methyl-1,3-benzothiazol-6-yl)-1H-pyrazolo[3,4-b]pyrazin-5-yl}methanol] had an IC50 of 4 nM.

`Cn1nc2ccc(-c3c[nH]c4nc(N5[C@H]6CC[C@@H]5[C@@H](F)[C@@H](N)C6)cnc34)c(Cl)c2c1Cl` [Example 104, (1R,2S,3S,5S)-8-[7-(3,4-dichloro-2-methyl-2H-indazol-5-yl)-5H-pyrrolo[2,3-b]pyrazin-3-yl]-2-fluoro-8-azabicyclo[3.2.1]octan-3-amine, hydrochloride]: the IC50 was found to be 9.5 nM.

`COc1cnc2ccc(-c3c[nH]c4nc(N5[C@H]6CC[C@@H]5[C@@H](F)[C@@H](N)C6)cnc34)c(Cl)c2n1` [Example 106, (1R,2S,3S,5S)-8-[7-(5-chloro-3-methoxyquinoxalin-6-yl)-5H-pyrrolo[2,3-b]pyrazin-3-yl]-2-fluoro-8-azabicyclo[3.2.1]octan-3-amine, hydrochloride] had an IC50 of 22 nM.

With `Cn1nc2ccc(-c3n[nH]c4nc(N5[C@@H]6CC[C@H]5C[C@@H](O)C6)c(CO)nc34)c(Cl)c2c1Cl` [Example 115, endo-8-[3-(3,4-dichloro-2-methyl-2H-indazol-5-yl)-5-(hydroxymethyl)-1H-pyrazolo[3,4-b]pyrazin-6-yl]-8-azabicyclo[3.2.1]octan-3-ol], the “SHP2 (percent at stated concentration)” value is on record as 50%@0.30 uM.

The experiment is the same for the next values; noted with them: DiFMUP substrate, 0.25 μM pIRS1 peptide, 30 min pre-incubation; average where more than one data point; read-out: SHP2 (IC50).
Regarding `Cn1nc2ccc(-c3n[nH]c4nc(N5[C@@H]6CC[C@H]5CNC6)c(CO)nc34)c(Cl)c2c1Cl` [Example 86, {6-[3,8-diazabicyclo[3.2.1]octan-8-yl]-3-(3,4-dichloro-2-methyl-2H-indazol-5-yl)-1H-pyrazolo[3,4-b]pyrazin-5-yl}methanol], the IC50 came to 7.2 nM.

Consider `Cn1nc2ccc(-c3n[nH]c4nc(N5[C@@H]6CC[C@H]5[C@@H](F)[C@@H](N)C6)c(CO)nc34)c(F)c2c1Cl` [Example 87, {6-[(1S,2S,3S,5R)-3-amino-2-fluoro-8-azabicyclo[3.2.1]octan-8-yl]-3-(3-chloro-4-fluoro-2-methyl-2H-indazol-5-yl)-1H-pyrazolo[3,4-b]pyrazin-5-yl}methanol], for which the IC50 amounted to 8 nM.

For the compound `Cn1nc2ccc(-c3n[nH]c4nc(N5[C@@H]6CC[C@H]5C[C@@H](N)C6)c(CO)nc34)c(Cl)c2c1Cl` [Example 88, {6-[endo-3-amino-8-azabicyclo[3.2.1]octan-8-yl]-3-(3,4-dichloro-2-methyl-2H-indazol-5-yl)-1H-pyrazolo[3,4-b]pyrazin-5-yl}methanol], the half-inhibitory concentration (IC50) was 7.1 nM.

For `Cc1nc2c(-c3ccc4nn(C)cc4c3Cl)n[nH]c2nc1N1C2CCCC1CNC2` [Example 91, 4-Chloro-5-(6-{3,9-diazabicyclo[3.3.1]nonan-9-yl}-5-methyl-1H-pyrazolo[3,4-b]pyrazin-3-yl)-2-methyl-2H-indazole, hydrochloride salt], the IC50 was 22 nM.

As for `CCn1cc2c(Cl)c(-c3n[nH]c4nc(N5[C@H]6CC[C@@H]5[C@@H](F)[C@@H](N)C6)c(C)nc34)ccc2n1` [Example 92, (1R,2S,3S,5S)-8-[3-(4-Chloro-2-ethyl-2H-indazol-5-yl)-5-methyl-1H-pyrazolo[3,4-b]pyrazin-6-yl]-2-fluoro-8-azabicyclo[3.2.1]octan-3-amine], the IC50 turned out to be 8.3 nM.

Consider `Cc1nc2c(-c3ccc4nn(C)c(Cl)c4c3Cl)n[nH]c2nc1N1[C@H]2CC[C@@H]1[C@@H](F)[C@@H](N)C2` [Example 93, (1R,2S,3S,5S)-8-[3-(3,4-Dichloro-2-methyl-2H-indazol-5-yl)-5-methyl-1H-pyrazolo[3,4-b]pyrazin-6-yl]-2-fluoro-8-azabicyclo[3.2.1]octan-3-amine], for which the half-maximal inhibitory concentration (IC50) turned out to be 3.6 nM.

Regarding `Cc1nc2c(-c3ccc4nn(C)cc4c3Cl)n[nH]c2nc1N1CCC2(CC1)CNC2` [Example 94, 7-[3-(4-Chloro-2-methyl-2H-indazol-5-yl)-5-methyl-1H-pyrazolo[3,4-b]pyrazin-6-yl]-2,7-diazaspiro[3.5]nonane], the half-maximal inhibitory concentration (IC50) came out at 70 nM.

On to `COc1cnc2ccc(-c3n[nH]c4nc(N5[C@H]6CC[C@@H]5[C@@H](F)[C@@H](N)C6)c(C)nc34)c(Cl)c2n1` [Example 95, (1R,2S,3S,5S)-8-[3-(5-chloro-3-methoxyquinoxalin-6-yl)-5-methyl-1H-pyrazolo[3,4-b]pyrazin-6-yl]-2-fluoro-8-azabicyclo[3.2.1]octan-3-amine], for which the IC50 was found to be 3 nM.

For the compound `Cc1nc2c(-c3ccc4ncc(N(C)C)nc4c3Cl)n[nH]c2nc1N1[C@H]2CC[C@@H]1[C@@H](F)[C@@H](N)C2` [Example 96, 7-{6-[(1R,2S,3S,5S)-3-amino-2-fluoro-8-azabicyclo[3.2.1]octan-8-yl]-5-methyl-1H-pyrazolo[3,4-b]pyrazin-3-yl}-8-chloro-N,N-dimethylquinoxalin-2-amine], the IC50 came out at 4.7 nM.

As to `COc1cc2c(Cl)c(-c3n[nH]c4nc(N5[C@H]6CC[C@@H]5[C@@H](F)[C@@H](N)C6)c(CO)nc34)ccc2nc1C` [Example 100, {6-[(1R,2S,3S,5S)-3-amino-2-fluoro-8-azabicyclo[3.2.1]octan-8-yl]-3-(5-chloro-3-methoxy-2-methylquinolin-6-yl)-1H-pyrazolo[3,4-b]pyrazin-5-yl}methanol], the IC50 was determined as 12 nM.

In the case of `CC(C)n1cc2c(Cl)c(-c3n[nH]c4nc(N5[C@H]6CC[C@@H]5[C@@H](F)[C@@H](N)C6)c(CO)nc34)ccc2n1` [Example 101, {6-[(1R,2S,3S,5S)-3-amino-2-fluoro-8-azabicyclo[3.2.1]octan-8-yl]-3-[4-chloro-2-(propan-2-yl)-2H-indazol-5-yl]-1H-pyrazolo[3,4-b]pyrazin-5-yl}methanol], the concentration for half-maximal inhibition (IC50) came out at 21 nM.

Take `Cn1nc2ccc(-c3n[nH]c4nc(N5[C@@H]6CC[C@H]5[C@H](F)[C@@H](N)C6)c(CO)nc34)c(Cl)c2c1Cl` [Example 102, {6-[(1S,2R,3S,5R)-3-amino-2-fluoro-8-azabicyclo[3.2.1]octan-8-yl]-3-(3,4-dichloro-2-methyl-2H-indazol-5-yl)-1H-pyrazolo[3,4-b]pyrazin-5-yl}methanol]: the concentration for half-maximal inhibition (IC50) was determined as 15 nM.

For the compound `CCn1nc2ccc(-c3n[nH]c4nc(N5[C@H]6CC[C@@H]5[C@@H](F)[C@@H](N)C6)c(CO)nc34)c(Cl)c2c1Cl` [Example 103, {6-[(1R,2S,3S,5S)-3-amino-2-fluoro-8-azabicyclo[3.2.1]octan-8-yl]-3-(3,4-dichloro-2-ethyl-2H-indazol-5-yl)-1H-pyrazolo[3,4-b]pyrazin-5-yl}methanol], the IC50 was determined as 8.9 nM.

With `Cn1nc2ccc(-c3n[nH]c4nc(N5[C@H]6CC[C@@H]5[C@@H](F)[C@@H](N)C6)c(CO)nc34)c(F)c2c1Br` [Example 105, {6-[(1R,2S,3S,5S)-3-amino-2-fluoro-8-azabicyclo[3.2.1]octan-8-yl]-3-(3-bromo-4-fluoro-2-methyl-2H-indazol-5-yl)-1H-pyrazolo[3,4-b]pyrazin-5-yl}methanol], the IC50 stood at 8.9 nM.

In the case of `COc1cnc2ccc(-c3c[nH]c4nc(N5[C@@H]6CC[C@H]5C[C@@H](N)C6)cnc34)c(Cl)c2n1` [Example 107, endo-8-[7-(5-chloro-3-methoxyquinoxalin-6-yl)-5H-pyrrolo[2,3-b]pyrazin-3-yl]-8-azabicyclo[3.2.1]octan-3-amine, hydrochloride], the half-inhibitory concentration (IC50) came out at 22 nM.

In the case of `Cc1c(-c2n[nH]c3nc(N4[C@H]5CC[C@@H]4[C@@H](F)[C@@H](N)C5)c(CO)nc23)ccc2nn(C)c(Cl)c12` [Example 108, {6-[(1R,2S,3S,5S)-3-amino-2-fluoro-8-azabicyclo[3.2.1]octan-8-yl]-3-(3-chloro-2,4-dimethyl-2H-indazol-5-yl)-1H-pyrazolo[3,4-b]pyrazin-5-yl}methanol], the half-maximal inhibitory concentration (IC50) is 6.6 nM.

`COc1cnc2ccc(-c3n[nH]c4nc(N5[C@@H]6CC[C@H]5[C@@H](F)[C@@H](N)C6)c(CO)nc34)c(Cl)c2n1` [Example 109, {6-[(1S,2S,3S,5R)-3-amino-2-fluoro-8-azabicyclo[3.2.1]octan-8-yl]-3-(5-chloro-3-methoxyquinoxalin-6-yl)-1H-pyrazolo[3,4-b]pyrazin-5-yl}methanol]: the IC50 is 11 nM.

For `Cn1nc2ccc(-c3n[nH]c4nc(N5CCC(C)(N)CC5)c(CO)nc34)c(Cl)c2c1Cl` [Example 110, [6-(4-amino-4-methylpiperidin-1-yl)-3-(3,4-dichloro-2-methyl-2H-indazol-5-yl)-1H-pyrazolo[3,4-b]pyrazin-5-yl]methanol], the IC50 was 7 nM.

Consider `COc1cnc2ccc(-c3n[nH]c4nc(N5[C@@H]6CC[C@H]5CNC6)c(CO)nc34)c(Cl)c2n1` [Example 112, [3-(5-Chloro-3-methoxyquinoxalin-6-yl)-6-{3,8-diazabicyclo[3.2.1]octan-8-yl}-1H-pyrazolo[3,4-b]pyrazin-5-yl]methanol], for which the IC50 is 12 nM.

For `COc1cnc2ccc(-c3n[nH]c4nc(N5[C@@H]6CC[C@H]5C[C@@H](N)C6)c(CO)nc34)c(Cl)c2n1` [Example 113, {6-[endo-3-amino-8-azabicyclo[3.2.1]octan-8-yl]-3-(5-chloro-3-methoxyquinoxalin-6-yl)-1H-pyrazolo[3,4-b]pyrazin-5-yl}methanol], the 50% inhibitory concentration (IC50) worked out at 7.4 nM.

Take `N[C@H]1C[C@@H]2CC[C@H]([C@H]1F)N2c1nc2[nH]nc(-c3ccc4ncsc4c3Cl)c2nc1CO` [Example 114, {6-[(1R,2S,3S,5S)-3-amino-2-fluoro-8-azabicyclo[3.2.1]octan-8-yl]-3-(7-chloro-1,3-benzothiazol-6-yl)-1H-pyrazolo[3,4-b]pyrazin-5-yl}methanol]: the IC50 was found to be 3 nM.

Still in this experiment, the particulars now being: at 0.010 uM.
As for `Cc1c2c(Cl)c(-c3n[nH]c4nc(N5[C@H]6CC[C@@H]5[C@@H](F)[C@@H](N)C6)c(CO)nc34)ccc2nn1C` [Example 99, {6-[(1R,2S,3S,5S)-3-amino-2-fluoro-8-azabicyclo[3.2.1]octan-8-yl]-3-(4-chloro-2,3-dimethyl-2H-indazol-5-yl)-1H-pyrazolo[3,4-b]pyrazin-5-yl}methanol], the “SHP2 (percent at stated concentration)” value amounted to 45%@0.010 uM.
